Earlier results in patent US20220387443A1, “RESPIRATORY SYNCYTIAL VIRUS FUSION PROTEIN INHIBITOR COMPOSITIONS AND METHODS FOR THE TREATMENT AND PROPHYLAXIS OF RSV DISEASES USING THE SAME” (priority 2019, published 2022).

How the values were obtained:
RSV infection = details: selected infants, intramuscularly 15 mg/kg once a month for the duration of RSV season
RSV = details: human RSV viral challenge studies

Compound | reduction of hospitalization rate caused by RSV infection (RSV infection) | reduction of viral load (RSV)
palivizumab: humanized monoclonal antibody against RSV fusion (F) protein | 45-55% | –
Cc1cn2nc([C@@H]3CCCCN3C(=O)c3cc(Cl)ccc3NS(C)(=O)=O)cc2nc1N1CC[C@H](N)C1 [GS-5806] | – | 4.2 log 10
